Source: patent US9902722B2, “Biaryl kinase inhibitors” (BRISTOL-MYERS SQUIBB COMPANY, priority 2014, dated 2018)

The compounds below were run against GST-Xa-hAAK1 (Homo sapiens (Human), UniProt Q2M2I8) (assay: AAK1 Kinase Assay). Conditions: bacterially expressed GST-Xa-hAAK1 3.5 nM; ATP 22 μM; peptide substrate 1.5 μM; 3 hours at room temperature; Caliper LabChip 3000.
Format: biochemical
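Further: each compound tested across an eleven-point concentration series, with IC50 obtained through non-linear regression fitting.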
Method: The assays were performed in U-bottom 384-well plates. […] The reactions were initiated by the combination of bacterially expressed, GST-Xa-hAAK1 with substrates and test compounds. The reactions were incubated at room temperature for 3 hours and terminated by adding 60 μl of 35 mM EDTA buffer to each sample. […] Compounds were dissolved at 10 mM in dimethylsulfoxide (DMSO) and evaluated at eleven concentrations. IC50 values were derived by non-linear regression analysis.

Sequence of GST-Xa-hAAK1 (Q2M2I8 whole entry): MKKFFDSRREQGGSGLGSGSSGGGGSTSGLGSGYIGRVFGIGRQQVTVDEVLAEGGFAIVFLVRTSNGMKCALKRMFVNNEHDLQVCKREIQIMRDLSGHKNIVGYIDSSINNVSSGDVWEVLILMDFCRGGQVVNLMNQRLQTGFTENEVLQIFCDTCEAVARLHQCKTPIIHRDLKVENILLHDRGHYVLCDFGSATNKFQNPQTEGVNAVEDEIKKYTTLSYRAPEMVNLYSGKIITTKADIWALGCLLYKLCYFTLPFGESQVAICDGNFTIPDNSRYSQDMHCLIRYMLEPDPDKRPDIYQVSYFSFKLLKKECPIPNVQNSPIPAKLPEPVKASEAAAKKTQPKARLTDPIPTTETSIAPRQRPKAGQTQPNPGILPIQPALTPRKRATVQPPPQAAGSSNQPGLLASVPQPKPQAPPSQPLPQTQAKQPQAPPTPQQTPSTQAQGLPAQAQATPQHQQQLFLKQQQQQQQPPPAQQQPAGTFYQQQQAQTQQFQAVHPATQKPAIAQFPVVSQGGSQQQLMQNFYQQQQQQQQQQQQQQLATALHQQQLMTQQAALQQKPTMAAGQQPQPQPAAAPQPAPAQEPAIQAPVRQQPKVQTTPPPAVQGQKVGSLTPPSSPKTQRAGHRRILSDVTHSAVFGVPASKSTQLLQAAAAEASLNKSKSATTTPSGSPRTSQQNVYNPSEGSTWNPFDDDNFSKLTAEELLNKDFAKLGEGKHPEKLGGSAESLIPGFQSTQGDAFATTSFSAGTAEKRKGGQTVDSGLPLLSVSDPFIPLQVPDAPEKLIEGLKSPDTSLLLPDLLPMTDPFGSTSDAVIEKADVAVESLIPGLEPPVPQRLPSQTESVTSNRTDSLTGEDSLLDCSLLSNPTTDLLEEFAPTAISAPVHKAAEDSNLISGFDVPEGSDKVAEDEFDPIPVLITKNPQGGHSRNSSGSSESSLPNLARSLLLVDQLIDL

SMILES | IC50 [nM]
Cc1cc(-c2ccnc3cc(F)cc(F)c23)ncc1OC[C@@](C)(N)CC(C)C [Example 226, (S)-1-((6-(5,7-difluoroquinolin-4-yl)-4-methylpyridin-3-yl)oxy)-2,4-dimethylpentan-2-amine] | 0.93
CC(C)C[C@](C)(N)COc1cnc(-c2ccnc3ccc(F)cc23)cc1Cl [Example 235, (S)-1-((4-chloro-6-(6-fluoroquinolin-4-yl)pyridin-3-yl)oxy)-2,4-dimethylpentan-2-amine] | 0.36
Cc1cc(-c2cc(C(F)F)c(OC[C@@](C)(N)CC(C)C)cn2)cnn1 [Example 162, (S)-1-((4-(difluoromethyl)-6-(6-methylpyridazin-4-yl)pyridin-3-yl)oxy)-2,4-dimethylpentan-2-amine] | 530
Cc1cc(-c2ccc(OC[C@@](C)(N)CC(C)C)c(C(F)F)c2)ccn1 [Example 50, (S)-1-(2-(difluoromethyl)-4-(2-methylpyridin-4-yl)phenoxy)-2,4-dimethylpentan-2-amine] | 0.38
CC(C)C[C@](C)(N)COc1ccc(-c2ccnc3cc(F)cc(F)c23)cc1C(F)(F)F [Example 72, (S)-1-(4-(5,7-difluoroquinolin-4-yl)-2-(trifluoromethyl)phenoxy)-2,4-dimethylpentan-2-amine] | 0.53
CC(=O)Nc1cc(-c2ccc(OC[C@@](C)(N)CC(C)C)c(C#N)c2)ccn1 [Example 21, (S)—N-(4-(4-((2-amino-2,4-dimethylpentyl)oxy)-3-cyanophenyl)pyridin-2-yl)acetamide] | 0.74
Cc1nccc(-c2ccc(OC[C@@](C)(N)CC(C)C)c(C(F)F)n2)c1F [Example 160, (S)-1-((6-(difluoromethyl)-3′-fluoro-2′-methyl-[2,4′-bipyridin]-5-yl)oxy)-2,4-dimethylpentan-2-amine] | 0.8
COc1cc(-c2ccnc3ccccc23)cnc1OC[C@@](C)(N)CC(C)C [Example 79, (S)-1-((3-methoxy-5-(quinolin-4-yl)pyridin-2-yl)oxy)-2,4-dimethylpentan-2-amine] | 16
CC(C)C[C@](C)(N)COc1ccc(-c2ccnc(Cl)c2)nc1C(F)F [Example 158, (S)-1-((2′-chloro-6-(difluoromethyl)-[2,4′-bipyridin]-5-yl)oxy)-2,4-dimethylpentan-2-amine] | 5.4
CC(C)C[C@](C)(N)COc1cnc(-c2ccnc3cc(F)cc(F)c23)cc1C(F)F [Example 130, (S)-1-((4-(difluoromethyl)-6-(5,7-difluoroquinolin-4-yl)pyridin-3-yl)oxy)-2,4-dimethylpentan-2-amine] | 1.4
CC(C)C[C@](C)(N)COc1cnc(-c2ccnc3cc(C(F)(F)F)ccc23)cc1Cl [Example 242, (S)-1-((4-chloro-6-(7-(trifluoromethyl)quinolin-4-yl)pyridin-3-yl)oxy)-2,4-dimethylpentan-2-amine] | 1.9
COC(=O)Nc1cc(-c2ccc(OC[C@](N)(CF)CC(C)C)c(C(F)F)n2)ccn1 [Example 179, (S)-methyl (5-((2-amino-2-(fluoromethyl)-4-methylpentyl)oxy)-6-(difluoromethyl)-[2,4′-bipyridin]-2′-yl)carbamate] | 2
CC(C)C[C@](C)(N)COc1ccc(-c2ccnc3ccccc23)c2ccccc12 [Example 209, (S)-2,4-dimethyl-1-((4-(quinolin-4-yl)naphthalen-1-yl)oxy)pentan-2-amine] | 21
CC(C)C[C@](C)(N)COc1ccc(-c2cc(F)ncc2Cl)cc1C(F)(F)F [Example 40, (S)-1-(4-(5-chloro-2-fluoropyridin-4-yl)-2-(trifluoromethyl)phenoxy)-2,4-dimethylpentan-2-amine] | 8.7
COC(=O)Nc1cc(-c2cc(C(F)F)c(OC[C@](N)(CF)CC(C)C)cn2)ccn1 [Example 181, (S)-methyl (5-((2-amino-2-(fluoromethyl)-4-methylpentyl)oxy)-4-(difluoromethyl)-[2,4′-bipyridin]-2′-yl)carbamate] | 1.9
CC(=O)Nc1cc(-c2ccc(OC[C@@](C)(N)CC(C)C)c(F)c2)ccn1 [Example 27, (S)—N-(4-(4-((2-amino-2,4-dimethylpentyl)oxy)-3-fluorophenyl)pyridin-2-yl)acetamide] | 1
CC(C)C[C@](C)(N)COc1ccc(-c2ccnc(F)c2)cc1C#N [Example 94, (S)-2-((2-amino-2,4-dimethylpentyl)oxy)-5-(2-fluoropyridin-4-yl)benzonitrile] | 4.7

SMILES | IC50 [nM]
Cc1cc(-c2ccc(OC[C@@H](N)CC(C)C)c(C#N)c2)ccn1 [Example 15, (S)-2-((2-amino-4-methylpentyl)oxy)-5-(2-methylpyridin-4-yl)benzonitrile] | 0.81
CC(C)C[C@](C)(N)COc1ccc(-c2ccnc3ccc(F)cc23)cc1C(F)(F)F [Example 73, (S)-1-(4-(6-fluoroquinolin-4-yl)-2-(trifluoromethyl)phenoxy)-2,4-dimethylpentan-2-amine] | 0.51
COC(=O)Nc1cc(-c2ccc(OCC(C)(N)CC(C)C)cn2)ccn1 (stereo not drawn) [Example 63, methyl (5-((2-amino-2,4-dimethylpentyl)oxy)-[2,4′-bipyridin]-2′-yl)carbamate] | 24
CC(=O)Nc1cc(-c2ccc(OC[C@@H](N)CC(C)C)c(C(F)(F)F)c2)ccn1 [Example 5, (S)—N-(4-(4-((2-amino-4-methylpentyl)oxy)-3-(trifluoromethyl)phenyl)pyridin-2-yl)acetamide] | 0.5
COC(=O)Nc1cc(-c2ccc(OC[C@@](C)(N)CC(C)C)c3ccccc23)ccn1 [Example 208, (S)-methyl (4-(4-((2-amino-2,4-dimethylpentyl)oxy)naphthalen-1-yl)pyridin-2-yl)carbamate] | 4.6
COC(=O)Nc1cc(-c2ncc(OC[C@@](C)(N)CC(C)C)cn2)ccn1 [Example 210, (S)-methyl (4-(5-((2-amino-2,4-dimethylpentyl)oxy)pyrimidin-2-yl)pyridin-2-yl)carbamate] | 79
Cc1cc(-c2ccnc3cc(F)ccc23)cnc1OC[C@@](C)(N)CC(C)C [Example 76, (S)-1-((5-(7-fluoroquinolin-4-yl)-3-methylpyridin-2-yl)oxy)-2,4-dimethylpentan-2-amine] | 1.7
CC(C)C[C@](C)(N)COc1ncc(-c2ccnc(Cl)c2)cc1C(F)F [Example 193, (S)-1-((2′-chloro-5-(difluoromethyl)-[3,4′-bipyridin]-6-yl)oxy)-2,4-dimethylpentan-2-amine] | 2.9
CC(C)C[C@@](C)(N)COc1cnc(-c2ccnc(C(F)F)c2)cc1C(F)F [Example 175, (R)-1-((2′,4-bis(difluoromethyl)-[2,4′-bipyridin]-5-yl)oxy)-2,4-dimethylpentan-2-amine] | 17
COC(=O)Nc1cc(-c2ccc(OC[C@@](C)(N)CC(C)C)c(S(C)(=O)=O)c2)ccn1 [Example 113, (S)-methyl (4-(4-((2-amino-2,4-dimethylpentyl)oxy)-3-(methylsulfonyl)phenyl)pyridin-2-yl)carbamate] | 43
Cc1c(-c2ccc(OC[C@@](C)(N)CC(C)C)c(C(F)(F)F)c2)ccnc1F [Example 41, (S)-1-(4-(2-fluoro-3-methylpyridin-4-yl)-2-(trifluoromethyl)phenoxy)-2,4-dimethylpentan-2-amine] | 3.8
COC(=O)Nc1cc(-c2cnc(OC[C@@](C)(N)CC(C)C)c(C(F)F)c2)ccn1 [Example 196, (S)-methyl (6-((2-amino-2,4-dimethylpentyl)oxy)-5-(difluoromethyl)-[3,4′-bipyridin]-2′-yl)carbamate] | 0.2
CC(C)C[C@H](N)COc1ccc(-c2ccnc(N)c2)cc1C#N [Example 4, (S)-2-((2-amino-4-methylpentyl)oxy)-5-(2-aminopyridin-4-yl)benzonitrile] | 2.8
CC(=O)Nc1cc(-c2ccc(OC[C@@H](N)CC(C)C)c(Cl)c2)ccn1 [Example 8, (S)—N-(4-(4-((2-amino-4-methylpentyl)oxy)-3-chlorophenyl)pyridin-2-yl)acetamide] | 0.53
CC(C)C[C@](C)(N)COc1ccc(-c2ncnc3ccccc23)cc1C(F)(F)F [Example 214, (S)-2,4-dimethyl-1-(4-(quinazolin-4-yl)-2-(trifluoromethyl)phenoxy)pentan-2-amine] | 0.86
Cc1cc(-c2cnc(OC[C@@](C)(N)CC(C)C)c(C(F)F)c2)ccn1 [Example 194, (S)-1-((5-(difluoromethyl)-2′-methyl-[3,4′-bipyridin]-6-yl)oxy)-2,4-dimethylpentan-2-amine] | 1.5
